From patent US10709784B2, “Metal chelating compositions and methods for controlling the growth or activities of a living cell or organism” (CHELATION PARTNERS INCORPORATED, priority 2011, dated 2020)
Read-outs that look alike come from different tables or passages of the source. One block for each compound: values may come before it.

Tests used:
[1] = tested on: Candida albicans ATCC 10231; test: Preservative agent MIC (80% inhibition) challenge test with soluble chelator; assay type: cell-based
[2] = tested on: Candida albicans ATCC 10231; test: Challenge growth test, sorbate and chelator within a semi-permeable device; assay type: cell-based; details: sorbate […] with 0.3 mg soluble chelator (example 4) in the semi-permeable device
Text: (§1) In one such culture, only medium was present as a control. […] The chelator was not added directly to the culture medium but was provided as within a dialysis membrane within the culture medium, such that only the external surfaces of the dialysis membrane device were in contact with the bulk of the culture medium, the chelator being within the membrane bag. The dialysis membrane was of the same type that had been used to prepare the soluble chelator and thus its use here ensured that the added chelator would be retained within the membrane device as in contact with the culture medium from within a semi-permeable membrane, i.e., the dialysis tubing. Thus the chelator would not be in direct physical contact with the yeast cells while any iron or sorbate or other low molecular weight media constituents or low molecular weight yeast cell products in the test milieu could diffuse in or out of the semi-permeable device. In a fourth test, 0.3 mg soluble chelator within a similar dialysis bag was added but sorbate was not added to the medium. All four test cultures were inoculated with the yeast and growth was monitored at intervals in the test cultures by optical density measurement at 600 nm over a 120 hr test period.

[3] = Overall Fe association constants; assay type: binding; details: Fe (III)
Text: Measurement of the Fe binding strengths can be measured and compared for different chelating materials.

E. coli = test: MIC of chelators in Fe-restricted RPMI; assay type: cell-based, Escherichia coli
Description: (§2) Soluble chelating compositions prepared as in example 4 and example 6 as well as the commercially clinically used low molecular weight (<1500 Da) chelators desferal (Novartis Pharmaceutical Company) and deferiprone (Apotex Pharmaceutical Company) were tested as to their MICs against representative pathogenic bacterial species in RPMI medium that had been treated as in example 38 but to which Fe was re-added to known concentrations that permitted growth of the bacteria under partially Fe restrictive conditions, i.e., so as to simulate the low Fe environmental supply available during infection by these bacteria in man or other animals. MIC testing was done in a manner similar to that described for example 15 but with test series being conducted in multi-well microtiter plates, each well providing a separate treatment test.
(§3) The clinically used chelators were not inhibitory in the case of Pseudomonas aeruginosa with no inhibition observed at the highest concentration tested (300 μg/ml for desferal and 100 μg/ml for deferiprone). Staphylococcus aureus was not inhibited by desferal and was inhibited by deferiprone to a lesser extent than for the soluble compositions of the present invention. Conversely, Escherichia coli was not inhibited by deferiprone but was inhibited substantially by desferal.

P. aeruginosa = test: MIC of chelators in Fe-restricted RPMI; assay type: cell-based, Pseudomonas aeruginosa
Description: as §2, §3

[4] = tested on: antibiotic resistant strains of Staphylococcus aureus; test: NCCLS MIC antibiotic sensitivity with added chelator; assay type: cell-based; details: strain WBG525
Description: Sensitive or antibiotic resistant strains of Staphylococcus aureus (S. aureus) were grown on blood agar plates overnight at 37° C. Four to six individual colonies of each strain were harvested into Mueller-Hinton broth (MHB) and incubated at 37° C. until they reached an optical density equal to or exceeding a 0.5 McFarland standard. The culture was diluted with MHB to equal 0.5 McFarland standard. Dilutions (10^−1) of these standards were used for inocula. Various stains of antibiotic resistant Staphylococcus aureus were used for these tests as shown in the results below. It should be appreciated that growing the bacterial strains on blood agar and then in MHB ensured the inoculum was not restricted for iron prior to the test but rather the bacterial cells were with ample endogenous iron supply.
A range of two-fold dilutions of a test antibiotic was prepared in MHB. […] Soluble and insoluble chelating compositions, as prepared in Example 6 or Example 5, or the free iron chelating agent deferiprone were added to the antibiotic containing tubes at known concentrations of iron binding capacity (referred to as iron binding equivalents) to allow direct comparison of the different compositions or free chelator. The final volume per tube was 500 μl. Bacterial inoculum, 25 μl of the 10^−1 dilutions of the appropriate S. aureus strain was added to each tube. The tubes were incubated at an angle on a reciprocating shaker at 37° C. overnight and results were scored as growth based on turbidity or no growth (lack of turbidity). The Minimum Inhibitory Concentration (MIC) for the antibiotic was determined from the growth results.
A series of tests was set up as in Example 15 with various antibiotic anti-cellular agents. The clinically isolated strains were obtained from the culture collection of Warren Grubb, Curtin University, Perth, Australia.
A series of antibiotic sensitivity tests was set up as in example 16 utilizing the soluble chelating compositions as prepared in Example 6. Separate test series with different clinically isolated Staphylococcus aureus strains, as obtained from the culture collection of Warren Grubb, Curtin University, Perth, Australia, and various antibiotics were employed but for each series a control test comprising addition of iron sufficient to supply two times the chelating capacity of the supplied chelating composition was also included.

S. aureus = test: MIC of chelators in Fe-restricted RPMI; assay type: cell-based; details: Staphylococcus aureus
Description: as §2, §3

[5] = tested on: Clinical isolates of Staphylococcus aureus; test: Growth inhibition of clinical isolates in MHB (turbidity 600 nm); assay type: cell-based; details: over 7 mM Fe binding equivalents, overnight
Text: Clinical isolates of Staphylococcus aureus as obtained from human infections were obtained and are obtainable from the culture collection of Warren Grubb, Curtin University, Perth, Australia. It should be noted that the clinical isolates as obtained from patients at the Royal Perth Hospital in Perth Australia can be expected to have strong similarities to other clinical isolates of this bacterium as obtained elsewhere in the world as the genetic determinants of antibiotic resistance characteristics in Staphylococcus aureus are now generally understood. Thus, similar results to those shown in examples 14-17 can be expected with other clinical isolates as obtained elsewhere and having similar antibiotic resistance patterns to those tested for these examples. […]
A range of dilutions of the deferiprone or soluble chelating composition was prepared in MHB in test tubes so as to provide a range of added iron chelating capacity as measured in Fe binding equivalents. […] The tubes were incubated at an angle on a reciprocating shaker at 37° C. overnight and the growth results were scored as a percentage of growth based on measured turbidity at a wavelength of 600 nm with a spectrophotometer of the test sample, as compared to a control samples that had received no added deferiprone or soluble chelating composition. […]

[6] = tested on: Candida albicans ATCC 10231; test: Growth with chelating materials of different molecular weight, 84 hours; assay type: cell-based; details: 30° C., defined medium without added iron, FIG. 8
Description: Candida albicans ATCC 10231 was tested for its sensitivities to: the medical chelator deferiprone (#1 in the graph of FIG. 8) (a product of Apotex Pharmaceuticals); the precursor chemicals used for the preparation of soluble chelating compositions of the present invention, including 3-hydroxy-2-methyl-4-pyrone (#2 in the graph of FIG. 8), AHMP as from Example 1 (#3 in the graph of FIG. 8) and MAHMP as from Example 2 (#4 in the graph of FIG. 8) and also the soluble chelating composition as from Example 4 (#5 in the graph of FIG. 8). The yeast was grown in defined medium as for Example 18 with no additional added iron (i.e., the only but adequate Fe available for the yeast was contributed from being present along with the other added medium components). Growth of the yeast in the defined media with added test chelating materials was compared to control samples that had not received any of the chelating materials following 84 hours of incubation and growth at 30° C. […] These chelators being internalized by the yeast were incapable of restricting iron supply to the yeast cells. […] Thus, low molecular weight chelators such as deferiprone and similar compounds permitted growth while the soluble chelating composition that contained functional groups similar to deferiprone but was a molecular weight higher than 1500 Daltons restricted growth, eventhough the various compounds tested were each capable of binding iron through their pyridinone functionality.

[7] = tested on: Candida albicans ATCC 10231; test: Fluconazole MIC (80% growth inhibition) with soluble chelator; assay type: cell-based
Description: Candida albicans ATCC 10231, yeast cells, as grown in defined medium with no additional added Fe as in example 18, were tested in the same media for their sensitivities to fluconazole, an anti-cellular agent as proto-typical of the azole class of antibiotics that are commonly used to control fungal growth and pathogenesis in humans and with fluconazole plus the soluble chelating composition, as prepared in Example 4. Fluconazole as a typical member of the azole class of anti-fungal antibiotics that function by inhibiting sterol synthesis.

[8] = tested on: Candida albicans ATCC 10231; test: Challenge growth test, fluconazole and chelator within a semi-permeable device; assay type: cell-based
Text: as §1, with “Thus the chelator would not be in direct physical contact with the yeast cells while any iron or sorbate or other low molecular weight media constituents or low molecular weight yeast cell products in the test milieu could diffuse in or out of the semi-permeable device. In a fourth test, 0.3 mg soluble chelator within a similar dialysis bag was added but sorbate was not added to the medium.” left out

[9] = Escherichia coli, treated RPMI with 0.02 μM Fe, read-out: MIC
[10] = Pseudomonas aeruginosa, treated RPMI with 0.02 μM Fe, read-out: MIC

SMILES: C/C=C/C=C/C(=O)[O-].[K+] [Sorbate, potassium sorbate]
- MIC ([1]; ATCC10231, 48 h, read-out: Sorbate or Paraben MIC, plus soluble chelating composition (Example 4) 25 μg/ml, 2 days): < 20 µg/mL
- MIC ([1]; ATCC10231, 48 h, read-out: Sorbate or Paraben MIC, plus soluble chelating composition (Example 4) […], 2 days): < 20 µg/mL
- MIC ([1]; ATCC10231, 48 h, read-out: Sorbate or Paraben MIC, preservative alone, 2 days): 120 µg/mL
- MIC ([1]; ATCC10231, 240 h, read-out: Sorbate or Paraben MIC, plus soluble chelating composition (Example 4) 25 μg/ml, 10 days): 30 µg/mL
- MIC ([1]; ATCC10231, 240 h, read-out: Sorbate or Paraben MIC, plus soluble chelating composition (Example 4) […], 10 days): < 20 µg/mL
- MIC ([1]; ATCC10231, 240 h, read-out: Sorbate or Paraben MIC, preservative alone, 10 days): 250 µg/mL
- yeast growth (OD 600 nm over 120 hr) [2]: prevented growth completely

- MIC (E. coli; [9]): > 100 µg/mL
- MIC (E. coli; treated RPMI with 0.09 μM Fe): >100 µg/mL
- MIC (P. aeruginosa; [10]): > 100 µg/mL
- MIC (P. aeruginosa; treated RPMI with 0.09 μM Fe): >100 µg/mL
- MIC Streptomycin ([4]; chelator added 7.4 mM Fe binding equivalents, * slight growth <5% of control turbidity at 640 μg/ml): >640* μg/ml
- MIC (S. aureus; treated RPMI with 0.02 μM Fe): 12.5 µg/mL
- MIC (S. aureus; treated RPMI with 0.09 μM Fe): 25 µg/mL
SMILES: Cc1c(O)c(=O)ccn1C [Deferiprone, 1,2-dimethyl-3-hydroxy-pyridin-4-one]
- Log 10 K(assoc) [3]: 36
- growth at 640 μg/ml streptomycin ([4]; chelator added 15 mM Fe binding equivalents): still allowed slight growth
- inhibition of growth [5]: about 15%
- growth of the yeast compared to control [6]: did not substantially restrict growth

- MIC ([7]; ATCC10231, 96 h, Fluconazole alone, 4 d): > 6 µg/mL
- MIC ([7]; ATCC10231, 96 h, plus 25 μg/ml soluble chelator (example 4), 4 d): < 0.05 µg/mL
- MIC ([7]; ATCC10231, 96 h, plus Fe-saturated soluble chelator, 4 d): > 6 µg/mL
- MIC ([7]; ATCC10231, 96 h, plus […] soluble chelator (Example 4), 4 d): < 0.05 µg/mL
- MIC ([7]; ATCC10231, 240 h, Fluconazole alone, 10 d): > 6 µg/mL
- MIC ([7]; ATCC10231, 240 h, plus 25 μg/ml soluble chelator (example 4), 10 d): < 0.05 µg/mL
- MIC ([7]; ATCC10231, 240 h, plus Fe-saturated soluble chelator, 10 d): > 6 µg/mL
- MIC ([7]; ATCC10231, 240 h, plus […] soluble chelator (Example 4), 10 d): 0.05 µg/mL
- MIC ([7]; ATCC10231, Fluconazole alone, 42 d): > 6 µg/mL
- MIC ([7]; ATCC10231, plus 25 μg/ml Soluble chelator (Example 4), 42 d): < 0.05 µg/mL
- MIC ([7]; ATCC10231, plus Fe-saturated soluble chelator, 42 d): > 6 µg/mL
- MIC ([7]; ATCC10231, plus […] soluble chelator (Example 4), 42 d): 0.19 µg/mL
SMILES: OC(Cn1cncn1)(Cn1cncn1)c1ccc(F)cc1F [Fluconazole]
- yeast growth (OD 600 nm over 120 hr) ([8]; fluconazole 0.083 μg/ml alone): only delayed and partially restricted yeast growth
- yeast growth (OD 600 nm over 120 hr) ([8]; fluconazole 0.083 μg/ml with 0.3 mg soluble chelator (example 4) in the semi-permeable device): prevented growth completely

SMILES: CC(=O)N(O)CCCCCNC(=O)CCC(=O)N(O)CCCCCNC(=O)CCC(=O)N(O)CCCCCN [DESFERAL, deferoxamine]
- MIC (E. coli; Escherichia coli, treated RPMI with 0.09 μM Fe): 0.59 µg/mL
- MIC (E. coli; [9]): 0.009 µg/mL
- MIC (P. aeruginosa; [10]): > 300 µg/mL
- MIC (P. aeruginosa; treated RPMI with 0.09 μM Fe): >300 µg/mL
- MIC (S. aureus; treated RPMI with 0.02 μM Fe): > 300 µg/mL
- MIC (S. aureus; treated RPMI with 0.09 μM Fe): > 300 µg/mL
